Results on five compounds are retold here after patent US20230339991A1, “HYPOXIA-ACTIVATED DNA ALKYLATING AGENT AND MEDICAL USE THEREOF” (ASCENTAWITS PHARMACEUTICALS, LTD., priority 2020, published 2023).

One series is described as follows: Plasma stability, human. The series is classed as in vitro ADME. The following applies: for Remaining percentage: after 30 minutes, 5 μM, 37° C.; for plasma stability: human plasma. The protocol:
(§1) The pH of the plasma was checked and recorded. Note: a.
(§2) The final concentration of solvent was 0.5%.
(§3) The assay is performed in duplicate.

Another series in a line: Plasma stability, mouse. As to conditions: for Remaining percentage: after 30 minutes; for plasma stability: mouse plasma. The series is classed as in vitro ADME. The protocol:
as §1, §2, §3

The next series can be described thus: Plasma stability, monkey. Format: in vitro ADME. The protocol: as §1, §2, §3
The subject of the next series is AA8. In words: Cell inhibition of different species, normoxic, AA8. The series is classed as cell-based, Rat. The following applies: IC50 AA8/H460. An excerpt:
To further compare the cytotoxicity of TH-302 with that of compound A, the following further provide test results for H460 cell line and cells from different species at different test times in the same laboratory, with the same operator and under the same experimental conditions.

The subject of series [1] is human lung cancer NCI-H460 subcutaneous xenograft. The series can be described thus: Human lung cancer NCI-H460 subcutaneous xenograft model, compounds B and C. Format: in vivo, BALB/c nude mice. The following applies: for relative tumor inhibition rate TGI (%): QD×5 per cycle, 2 cycles, Day 28. The protocol:
BALB/c nude mice were subcutaneously inoculated with human lung cancer NCI-H460 cells to establish human lung cancer subcutaneous transplantation tumor model. […] The positive drug Irinotecan 40 mg/kg group was administered by intraperitoneal injection once every 4 days for 7 times, and observed for 4 days.
Background: A xenograft is tissue or cells of one species grown in another, often human tumour cells in immunodeficient mice.

A further series deals with P-gp (Homo sapiens, UniProt P08183). The series can be described thus: P-gp substrate evaluation, MDCKII-MDR1 penetration test. The following applies: for recovery at 2 h: dog; for Pgp substrate status: with and without verapamil. The method, then:
(1) MDCKII-MDR1 cells were cultured in the cell culture bottle. The conditions of the incubator were 37° C., 5% of CO2, and 95% of the relative humidity. When the cell growth confluence was up to 70-90%, the cells were inoculated to the transwell.
The cell suspension was transferred to the upper compartment of the 96-well transwell, wherein each upper compartment contains 50 μL of the cell suspension. The final inoculum density was 5.45×10^5 cells/cm^2.
(1) The transwell culture plate of the MDCKII-MDRT cells was taken out from the incubator. The cell monolayer membrane was rinsed two times with the buffer solution and incubated at 37° C. for 30 min.
(2) The transport rate that the compound was transported from the top-end to the base-end was tested. 75 μL of the buffer solution contained the sample was added to each upper compartment (top-end), and 235 μL of the buffer solution was added to each lower compartment (base-end).
(3) The transport rate that the compound was transported from the base-end to the top-end was tested. 75 μL of the buffer solution was added to each upper compartment (top-end), and 235 μL of the buffer solution contained the sample was added to each lower compartment (base-end).
(6) The upper and lower transits were merged up and then incubated at 37° C. for 2 h.
(7) After the incubation was finished, 50 μL of the samples from each well of the upper compartment and the lower compartment of the transwell culture plate were respectively added to new sample tubes. 200 μL of the acetonitrile containing the internal standard (100 nM Alprazolam, 200 nM Labetalol, 200 nM caffeine and 2 μM Ketoprofen) was added to each sample tube. After the sample tubes were vortexed for 10 min, they were centrifuged at 3220 g for 30 min. 100 μL of the supernatant was taken and diluted with the same volume of the water to perform the LC-MS/MS analysis. Each sample was adopted to the three parallel incubation.
The peak area was calculated by the result of the ion chromatography. The permeability coefficient (Papp, unit: cm/s×10^−6) of the compound was calculated by the formula: […]
In the formula, “VA” refers to the volume of the solution on the acceptor (Ap→Bl was 0.235 mL, and Bl→Ap was 0.075 mL), “Area” refers to the area of the permeable membrane of the 96-well transwell (0.143 cm^2), “time” refers to the incubation time (in second), “[drug]acceptor” refers to the drug concentration of the acceptor after the incubation, and “[drug]initial, donor” refers to the initial concentration of the drug administration before the incubation.
The efflux ratio was calculated by the following formula: […]
In the formula, “Papp (B-A)” refers to the permeability coefficient from the base-end to the top-end, and the term “Papp (A-B)” refers to the permeability coefficient from the top-end to the base-end.
The recovery was calculated by the following formula: […]
In the formula, “VA” refers to the volume of the solution on the acceptor (mL), “VD” refers to the volume of the solution on the donor (mL), “[drug]acceptor” refers to the drug concentration of the acceptor after the incubation, “[drug]donor” refers to the drug concentration of the donor after the incubation, and the term “[drug]initial, donor” refers to the initial concentration of the drug administration before the incubation.

A further series concerns H460 cells. In words: Clonogenic assay, H460. The series is classed as cell-based, human. As to conditions: for IC90: Homo sapiens, NCI-H460, 3 h; for HCR: IC90 ratio normoxic/N2. The protocol: The following PSN-1 cells, PANC1 cells, MiaPaCa-2 cells, H460 cells, DLD-1 WT (wild type) cells, DLD-1 BRCA2 KO (BRCA2 deletion) cells were seeded in 10 cm vitreous cell culture plates at specific cell numbers and incubated for 2 days at 37° C. and under the conditions of 5% CO2, 95% air and 100% relative humidity. On day 3, test compounds TH302 or AST-002-P2 at the specific concentrations were added to the cells, and incubated for 3 hours together with the cells under normoxic (21% O2) and hypoxic conditions (<0.01% O2), respectively. After cells were stimulated by compounds, the cells were washed once with 1×PBS and digested into single cells with pancreatic enzymes for cell counting. The above cells in specific cell numbers were reseeded in a new culture plate and cultured for 7 days to perform single cell colony formation. When single cells in compound culture plates stimulated under normoxic conditions proliferated to about 50 cells, the cultures were removed and stained with 0.5% crystal violet for 40 minutes. After staining, cells were counted for colonies using Colony Counter (VWR) and the IC90 was calculated.

[2] abbreviates: MDCK-MDR1, Recovery (%) AP-BL, verapamil 0 μM.
Setting [3] is: MDCK-MDR1, Recovery (%) AP-BL, verapamil 100 μM.
Where [4] appears, read: MDCK-MDR1, Recovery (%) BL-AP, verapamil 100 μM.
[5] abbreviates: 21% O2, read-out: IC90 Normoxia.
The mark [6] stands for this setting: <0.01% O2, read-out: IC90 Hypoxia.

Where “and” joins values, the source holds several entries; their conditions need not be identical. Equal entries are not always repeated. Where two headings read alike, the source gives them in different places. Marks after values point to notes of the source that are not given here.

P-gp, sequence (P08183 whole entry): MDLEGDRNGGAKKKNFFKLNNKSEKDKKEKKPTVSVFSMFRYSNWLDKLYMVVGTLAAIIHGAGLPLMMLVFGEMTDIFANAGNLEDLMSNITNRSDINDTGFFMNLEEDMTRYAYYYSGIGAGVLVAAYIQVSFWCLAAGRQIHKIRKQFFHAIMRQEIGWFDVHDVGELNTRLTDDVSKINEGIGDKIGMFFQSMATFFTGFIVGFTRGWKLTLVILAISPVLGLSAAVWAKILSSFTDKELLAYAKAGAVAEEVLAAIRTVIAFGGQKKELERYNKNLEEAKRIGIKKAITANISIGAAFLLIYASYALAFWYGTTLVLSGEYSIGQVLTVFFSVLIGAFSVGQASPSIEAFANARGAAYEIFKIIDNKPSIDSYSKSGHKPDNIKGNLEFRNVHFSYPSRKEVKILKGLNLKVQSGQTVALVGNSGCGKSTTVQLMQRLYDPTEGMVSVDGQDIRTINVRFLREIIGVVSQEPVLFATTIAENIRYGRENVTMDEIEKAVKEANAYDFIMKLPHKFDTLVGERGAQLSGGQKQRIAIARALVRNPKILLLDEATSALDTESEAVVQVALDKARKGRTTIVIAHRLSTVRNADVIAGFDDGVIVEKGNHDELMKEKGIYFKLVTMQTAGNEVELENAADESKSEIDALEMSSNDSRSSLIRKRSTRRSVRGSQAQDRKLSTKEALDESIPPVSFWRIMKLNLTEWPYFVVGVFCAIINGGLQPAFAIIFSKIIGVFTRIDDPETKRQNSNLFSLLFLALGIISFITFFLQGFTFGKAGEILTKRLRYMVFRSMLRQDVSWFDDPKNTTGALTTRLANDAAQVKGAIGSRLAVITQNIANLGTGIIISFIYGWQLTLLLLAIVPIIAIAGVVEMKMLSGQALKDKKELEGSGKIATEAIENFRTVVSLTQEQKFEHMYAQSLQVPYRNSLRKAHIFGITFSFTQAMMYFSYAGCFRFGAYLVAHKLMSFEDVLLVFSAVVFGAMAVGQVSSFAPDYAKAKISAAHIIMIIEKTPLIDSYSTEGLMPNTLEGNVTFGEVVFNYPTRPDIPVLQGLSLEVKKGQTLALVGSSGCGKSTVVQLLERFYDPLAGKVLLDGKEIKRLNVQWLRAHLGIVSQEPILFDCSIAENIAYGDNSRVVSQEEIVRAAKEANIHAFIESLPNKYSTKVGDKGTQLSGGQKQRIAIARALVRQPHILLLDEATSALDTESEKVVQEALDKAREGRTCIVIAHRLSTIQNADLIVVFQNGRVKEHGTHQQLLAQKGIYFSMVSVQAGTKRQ

For the compound `CC(OP(=O)(N1CC1)N1CC1)c1ccc([N+](=O)[O-])c2ccccc12` (centres unmarked) [Compound D], the Remaining percentage in the series “Plasma stability, human” (Human plasma) amounted to 97.06%; in “Plasma stability, mouse” (Mouse plasma) it was 87.35%; in the series “Plasma stability, monkey” (Monkey plasma, after 30 minutes) it was 87.66%. In addition, the “plasma stability” value in the series “Plasma stability, human” is “secondarily”; in “Plasma stability, mouse”, “relatively unstable”.
`O=[N+]([O-])c1ccc(C(OP(=O)(N2CC2)N2CC2)C(F)(F)F)c2ccccc12` (racemic) [Compound A]: the “Remaining percentage (%)” value in the series “Plasma stability, human” (Human plasma, 15 min) was 108 ± 0.773%; in the series “Plasma stability, human” (Human plasma, 60 min) it was 99.2 ± 3.39%; in “Plasma stability, human” (Human plasma, 90 min), 93.8 ± 3.12%; in the series “Plasma stability, human” (Human plasma, 120 min), 89.7% and 89.7 ± 4.43%; in the series “Plasma stability, human” (Human plasma, 2 h time course, 0 min) it was 100%; in the series “Plasma stability, human” (Human plasma, time course, 30 min) it was 102 ± 3.85%. Besides, the “Remaining percentage (%)” value was 104 ± 2.96% in the series “Plasma stability, mouse” (Mouse plasma, 15 min); 86.6 ± 3.16% in “Plasma stability, mouse” (Mouse plasma, 60 min); 76.9 ± 2.40% in the series “Plasma stability, mouse” (Mouse plasma, 90 min); 66.4% and 66.4 ± 0.993% in “Plasma stability, mouse” (Mouse plasma, 120 min); 100% in “Plasma stability, mouse” (Mouse plasma, 2 h time course, 0 min); 97.7 ± 4.71% in “Plasma stability, mouse” (Mouse plasma, time course, 30 min). Besides, the “Remaining percentage (%)” value in the series “Plasma stability, monkey” (Monkey plasma, 15 min) is 97.9 ± 3.72%; in the series “Plasma stability, monkey” (Monkey plasma, 60 min) it was 103 ± 4.19%; in “Plasma stability, monkey” (Monkey plasma, 90 min), 92.3 ± 2.15%; in the series “Plasma stability, monkey” (Monkey plasma, 120 min) it was 87.4% and 87.4 ± 1.59%; in “Plasma stability, monkey” (Monkey plasma, 2 h time course, 0 min), 100%; in the series “Plasma stability, monkey” (Monkey plasma, time course, 30 min), 107 ± 2.78%. Further, the Remaining percentage in the series “Plasma stability, human” (Human plasma) was 68.68%; in the series “Plasma stability, mouse” (Mouse plasma), 55.07%. Also, the t½ in the series “Plasma stability, human” (Human plasma, in vitro) was >373* min; in the series “Plasma stability, monkey” (Monkey plasma, in vitro), >373* min. Moreover, the half-life at 5 µM was above 6.22 h in the series “Plasma stability, human” (Human plasma, in vitro, read-out: t½); 3.15 h in the series “Plasma stability, mouse” (Mouse plasma, in vitro, read-out: t½); above 6.22 h in “Plasma stability, monkey” (Monkey plasma, in vitro, read-out: t½). For the same compound, the “plasma stability” value in the series “Plasma stability, human” was “stable”; in “Plasma stability, mouse”, “unstable”; in the series “Plasma stability, monkey” (monkey plasma), “stable”. The “Multiplier: Rat/Human” value with AA8 (exposure 3 days) is recorded as 110.
In the case of `O=[N+]([O-])c1ccc([C@H](OP(=O)(N2CC2)N2CC2)C(F)(F)F)c2ccccc12` [Compound B], the “relative tumor inhibition rate TGI (%)” value in series [1] (20 mg/kg i.p.) was 88.51%. The recovery at 2 h at P-gp (setting [2]) stood at 59.3%; at P-gp (setting [3]), 65.2%; at P-gp (setting [4]), 68.3%. Also, at P-gp, the Pgp substrate status entry is given as “not substrates for Pgp”.
As usually defined, the IC90 is the concentration at which the effect reaches the 90% level. For the compound `Cn1c(COP(=O)(NCCBr)NCCBr)cnc1[N+](=O)[O-]` [TH-302, Evofosfamide], the “Multiplier: Rat/Human” value in the series on AA8 (exposure 2 h) came out at 41.5. Besides, the IC90 is 15600 nM with H460 cells (setting [5]) and 21 nM in the series with H460 cells (setting [6]). In the series on H460 cells, the HCR was determined as 741.
For the compound `O=[N+]([O-])c1ccc([C@@H](OP(=O)(N2CC2)N2CC2)C(F)(F)F)c2ccccc12` (single isomer, unassigned) [Compound C], the “relative tumor inhibition rate TGI (%)” value in series [1] (20 mg/kg i.p.) is 90.56%; in series [1] (40 mg/kg i.p.), 94.33%. The “complete cure rate on tumors” value in series [1] (group 6, 20 mg/kg, Day35) was determined as 20%. Also, the recovery at 2 h on P-gp (setting [2]) was 57.8%; on P-gp (setting [3]) it was 61.5%; at P-gp (setting [4]), 66.3%. For the same compound, the Pgp substrate status result on P-gp was “not substrates for Pgp”. Also, the concentration for an effect of 90% (IC90) in the series on H460 cells (setting [5]) came out at 66 nM; with H460 cells (setting [6]), 41 nM. Besides, the HCR in the series with H460 cells is given as 1.6.
